{
  "source": "patent EP4806900A2",
  "about": "“RAS INHIBITORS” (Revolution Medicines, Inc., priority 2019, dated 2021)",
  "note": "“And” between values parts separate entries of the source, which are not always exact repeats. Equal entries are not always repeated.",
  "data": [
    {"test_system": "NCI-H358 (K-Ras G12C)", "test": "CellTiter-Glo cell viability assay, NCI-H358", "type": "cell-based, human", "conditions": "Table 5; read-out: H358 Cell Viability assay data (K-Ras G12C, IC50)", "procedure": "Note - The following protocol describes a procedure for monitoring cell viability of K-Ras mutant cancer cell lines in response to a compound of the invention. Other RAS isoforms may be employed, though the number of cells to be seeded will vary based on cell line used.\nTest compounds (132.5 nL) were directly dispensed into the assay plates containing cells. […] On day 5, assay plates and their contents were equilibrated to room temperature for approximately 30 minutes. […] Luminescence was measured using the PerkinElmer Enspire. Data were normalized by the following: (Sample signal/Avg. DMSO)*100. The data were fit using a four-parameter logistic fit.", "values": [
      {"smiles": "CCn1c(-c2ccccc2CN(C)C)c2c3cc(ccc31)-c1cc(O)cc(c1)C[C@H](NC(=O)[C@H](C(C)C)N(C)C(=O)c1ccc(NC(=O)/C=C/CN(C)C)cn1)C(=O)N1CCC[C@H](N1)C(=O)OCC(C)(C)C2", "note": "[Compound A46]", "IC50": "> 1000 nM"},
      {"smiles": "CCn1c(-c2ccccc2CN(C)C)c2c3cc(ccc31)-c1cc(O)cc(c1)C[C@H](NC(=O)[C@H](C(C)C)N(C)C(=O)[C@H]1CCN(C(=O)/C=C/CN(C)C)C1)C(=O)N1CCC[C@H](N1)C(=O)OCC(C)(C)C2", "note": "[Compound A47]", "IC50": "10 to 100 nM"},
      {"smiles": "CCn1c(-c2ccccc2CN(C)C)c2c3cc(ccc31)-c1cc(O)cc(c1)C[C@H](NC(=O)[C@H](C(C)C)N(C)C(=O)c1ccc(NC(=O)/C=C/CN(C)C)cc1)C(=O)N1CCC[C@H](N1)C(=O)OCC(C)(C)C2", "note": "[Compound A49]", "IC50": "> 1000 nM"},
      {"smiles": "C=CC(=O)N1CC[C@H](C(=O)N(C)[C@H](C(=O)N[C@H]2Cc3cc(O)cc(c3)-c3ccc4c(c3)c(c(-c3ccc5c(c3)OCCN5C)n4CC)CC(C)(C)COC(=O)[C@@H]3CCCN(N3)C2=O)C(C)C)C1", "note": "[Compound A50]", "IC50": "100 to 1000 nM"},
      {"smiles": "C=CC(=O)N1CC[C@H](C(=O)N(C)[C@H](C(=O)N[C@H]2Cc3cc(O)cc(c3)-c3ccc4c(c3)c(c(-c3ccc(CN(C)C)cc3COC)n4CC)CC(C)(C)COC(=O)[C@@H]3CCCN(N3)C2=O)C(C)C)C1", "note": "[Compound A51]", "IC50": "10 to 100 nM"},
      {"smiles": "C=CC(=O)N1C[C@H](C)[C@H](C(=O)N(C)[C@H](C(=O)N[C@H]2Cc3cc(O)cc(c3)-c3ccc4c(c3)c(c(-c3ccccc3CN(C)C)n4CC)CC(C)(C)COC(=O)[C@@H]3CCCN(N3)C2=O)C(C)C)C1", "note": "[Compound A52]", "IC50": "10 to 100 nM"},
      {"smiles": "C=CC(=O)N1CC[C@H](C(=O)N(C)[C@H](C(=O)N[C@H]2Cc3cc(O)cc(c3)-c3cc(F)c4c(c3)c(c(-c3ccccc3CCOC)n4CC)CC(C)(C)COC(=O)[C@@H]3CCCN(N3)C2=O)C(C)C)C1", "note": "[Compound A53]", "IC50": "100 to 1000 nM"},
      {"smiles": "CCn1c(-c2cccnc2COC)c2c3cc(ccc31)-c1cc(O)cc(c1)C[C@H](NC(=O)[C@H](C(C)C)N(C)C(=O)[C@H]1CCN(C(=O)/C=C/CN(C)C)C1)C(=O)N1CCC[C@H](N1)C(=O)OCC(C)(C)C2", "note": "[Compound A54, (2S)-2-{1-[(3S)-1-[(2E)-4-(dimethylamino)but-2-enoyl]pyrrolidin-3-yl]-N-methylformamido}-N-[(8S,14S)-22-ethyl-4-hydroxy-21-[2-(methoxymethyl)pyridin-3-yl]-18,18-dimethyl-9,15-dioxo-16-oxa-10,22,28-triazapentacyclo[18.5.2.1^2,^6.1^10,^14.0^23,^27]nonacosa-1(26),2,4,6(29),20,23(27),24-heptaen-8-yl]-3-methylbutanamide]", "IC50": "10 to 100 nM"},
      {"smiles": "C=CC(=O)N1CC[C@H](C(=O)N(C)[C@H](C(=O)N[C@H]2Cc3cc(O)cc(c3)-c3ccc4c(c3)c(c(-c3cccnc3COC)n4CC)CC(C)(C)COC(=O)[C@@H]3CCCN(N3)C2=O)C2CCCC2)C1", "note": "[Compound A55]", "IC50": "< 10 nM"},
      {"smiles": "C=CC(=O)N1C[C@H](C)[C@H](C(=O)N(C)[C@H](C(=O)N[C@H]2Cc3cc(O)cc(c3)-c3ccc4c(c3)c(c(-c3cccnc3COC)n4CC)CC(C)(C)COC(=O)[C@@H]3CCCN(N3)C2=O)C(C)C)C1", "note": "[Compound A56]", "IC50": "< 10 nM"},
      {"smiles": "C=CC(=O)N1C[C@H](C)[C@H](C(=O)N(C)[C@H](C(=O)N[C@H]2Cc3cc(O)cc(c3)-c3ccc4c(c3)c(c(-c3cccnc3COC)n4CC)CC(C)(C)COC(=O)[C@@H]3CCCN(N3)C2=O)C2CCCC2)C1", "note": "[Compound A57]", "IC50": "< 10 nM"},
      {"smiles": "C=CC(=O)N1CC[C@H](C(=O)N(C)[C@H](C(=O)N[C@H]2Cc3cc(O)cc(c3)-c3ccc4c(c3)c(c(C3=C(COC)COCC3)n4CC)CC(C)(C)COC(=O)[C@@H]3CCCN(N3)C2=O)C(C)C)C1", "note": "[Compound A58]", "IC50": "10 to 100 nM"},
      {"smiles": "C=CC(=O)N1CC[C@H](C(=O)N(C)[C@H](C(=O)N[C@H]2Cc3cc(OC(C)=O)cc(c3)-c3ccc4c(c3)c(c(-c3ccccc3CN(C)C)n4CC)CC(C)(C)COC(=O)[C@@H]3CCCN(N3)C2=O)C(C)C)C1", "note": "[Compound A59]", "IC50": "100 to 1000 nM"},
      {"smiles": "C=CC(=O)N1CC[C@H](C(=O)N(C)[C@H](C(=O)N[C@H]2Cc3cc(O)cc(c3)-c3ccc4c(c3)c(c(-c3cccnc3N3CC(OC)C3)n4CC)CC(C)(C)COC(=O)[C@@H]3CCCN(N3)C2=O)C(C)C)C1", "note": "[Compound A60]", "IC50": "10 to 100 nM"},
      {"smiles": "C=CC(=O)N1CC[C@H](C(=O)N(C)[C@H](C(=O)N[C@H]2Cc3cc(O)cc(c3)-c3ccc4c(c3)c(c(-c3cncnc3)n4CC)CC(C)(C)COC(=O)[C@@H]3CCCN(N3)C2=O)C(C)C)C1", "note": "[Compound A61]", "IC50": "10 to 100 nM"},
      {"smiles": "C=CC(=O)N1CC[C@H](C(=O)N(C)[C@H](C(=O)N[C@H]2Cc3cc(O)cc(c3)-c3ccc4c(c3)c(c(-c3cncc(C#N)c3)n4CC)CC(C)(C)COC(=O)[C@@H]3CCCN(N3)C2=O)C(C)C)C1", "note": "[Compound A62]", "IC50": "10 to 100 nM"},
      {"smiles": "C=CC(=O)N1CC[C@H](C(=O)N(C)[C@H](C(=O)N[C@H]2Cc3cc(O)cc(c3)-c3ccc4c(c3)c(c(C3=C(COC)CCCC3)n4CC)CC(C)(C)COC(=O)[C@@H]3CCCN(N3)C2=O)C(C)C)C1", "note": "[Compound A64]", "IC50": "10 to 100 nM"},
      {"smiles": "C=CC(=O)N1CC[C@H](C(=O)N(C)[C@H](C(=O)N[C@H]2Cc3cc(O)cc(c3)-c3ccc4c(c3)c(c([C@@H]3CC=CN=C3COC)n4CC)CC(C)(C)COC(=O)[C@@H]3CCCN(N3)C2=O)C(C)C)C1", "note": "[Compound A65]", "IC50": "100 to 1000 nM"},
      {"smiles": "C=CC(=O)N1CC[C@H](C(=O)N(C)[C@H](C(=O)N[C@H]2Cc3cc(O)cc(c3)-c3ccc4c(c3)c(c(-c3cccnc3COC)n4C)CC(C)(C)COC(=O)[C@@H]3CCCN(N3)C2=O)C(C)C)C1", "note": "[Compound A66]", "IC50": "10 to 100 nM"},
      {"smiles": "CCn1c(-c2cccnc2COC)c2c3cc(ccc31)-c1cc(O)cc(c1)C[C@H](NC(=O)[C@H](C(C)C)N(C)C(=O)c1ccc(NC(=O)/C=C/CN(C)C)cn1)C(=O)N1CCC[C@H](N1)C(=O)OCC(C)(C)C2", "note": "[Compound A67, (2E)-4-(dimethylamino)-N-(6-{[(1S)-1-{[(8S,14S)-22-ethyl-4-hydroxy-21-[2-(methoxymethyl)pyridin-3-yl]-18,18-dimethyl-9,15-dioxo-16-oxa-10,22,28-triazapentacyclo[18.5.2.1^2,^6.1^10,^14.0^23,^27]nonacosa-1(26),2,4,6(29),20,23(27),24-heptaen-8-yl]carbamoyl}-2-methylpropyl](methyl)carbamoyl}pyridin-3-yl)but-2-enamide]", "IC50": "100 to 1000 nM"},
      {"smiles": "C=CC(=O)N1CC[C@@]2(CCN([C@H](C(=O)N[C@H]3Cc4cc(O)cc(c4)-c4ccc5c(c4)c(c(-c4ccccc4CCOC)n5CC)CC(C)(C)COC(=O)[C@@H]4CCCN(N4)C3=O)C(C)C)C2=O)C1", "note": "[Compound A68]", "IC50": "100 to 1000 nM"},
      {"smiles": "C=CS(=O)(=O)N1CC[C@H](C(=O)N(C)[C@H](C(=O)N[C@H]2Cc3cc(O)cc(c3)-c3ccc4c(c3)c(c(-c3cccnc3COC)n4CC)CC(C)(C)COC(=O)[C@@H]3CCCN(N3)C2=O)C(C)C)C1", "note": "[Compound A69]", "IC50": "10 to 100 nM"},
      {"smiles": "C=CC(=O)N1CC(C(=O)N(C)[C@H](C(=O)N[C@H]2Cc3cc(O)cc(c3)-c3ccc4c(c3)c(c(-c3cccnc3COC)n4CC)CC(C)(C)COC(=O)[C@@H]3CCCN(N3)C2=O)C(C)C)C1", "note": "[Compound A70]", "IC50": "10 to 100 nM"},
      {"smiles": "CCn1c(-c2cccnc2COC)c2c3cc(ccc31)-c1cc(O)cc(c1)C[C@H](NC(=O)[C@H](C(C)C)N(C)C(=O)C1CN(C(=O)/C=C/CN(C)C)C1)C(=O)N1CCC[C@H](N1)C(=O)OCC(C)(C)C2", "note": "[Compound A71, (2S)-2-(1-{1-[(2E)-4-(dimethylamino)but-2-enoyl]azetidin-3-yl}-N-methylformamido)-N-[(8S,14S)-22-ethyl-4-hydroxy-21-[2-(methoxymethyl)pyridin-3-yl]-18,18-dimethyl-9,15-dioxo-16-oxa-10,22,28-triazapentacyclo[18.5.2.1^2,6.1^10,^14.0^23,^27]nonacosa-1(26),2,4,6(29),20,23(27),24-heptaen-8-yl]-3-methylbutanamide]", "IC50": "100 to 1000 nM"},
      {"smiles": "CCn1c(-c2cccnc2COC)c2c3cc(ccc31)-c1cc(O)cc(c1)C[C@H](NC(=O)[C@H](C(C)C)N(C)C(=O)[C@H]1CCN(C(=O)/C=C/CN3CCN(C)CC3)C1)C(=O)N1CCC[C@H](N1)C(=O)OCC(C)(C)C2", "note": "[Compound A72]", "IC50": "> 1000 nM"},
      {"smiles": "C=CC(=O)N1CC[C@H](C(=O)N(C)[C@H](C(=O)N[C@H]2Cc3cc(O)cc(c3)-c3ccc4c(c3)c(c(-c3cncc(CN(C)C)c3)n4CC)CC(C)(C)COC(=O)[C@@H]3CCCN(N3)C2=O)C(C)C)C1", "note": "[Compound A73]", "IC50": "10 to 100 nM"},
      {"smiles": "C=CC(=O)N1CC[C@H](C(=O)N(C)[C@H](C(=O)N[C@H]2Cc3cc(O)cc(c3)-c3ccc4c(c3)c(c(-c3cccnc3)n4C(C)(C)C#N)CC(C)(C)COC(=O)[C@@H]3CCCN(N3)C2=O)C(C)C)C1", "note": "[Compound A74]", "IC50": "10 to 100 nM"},
      {"smiles": "C=CC(=O)N1CC[C@H](C(=O)N(C)[C@H](C(=O)N[C@H]2Cc3cc(O)cc(c3)-c3ccc4c(c3)c(c(-c3cccnc3[C@H](C)OC)n4CC)CC(C)(C)COC(=O)[C@@H]3CCCN(N3)C2=O)C(C)C)C1", "note": "[Compound A75, (2S)-N-[(8S,14S,20M)-22-ethyl-4-hydroxy-21-{2-[(1S)-1-methoxyethyl]pyridin-3-yl}-18,18-dimethyl-9,15-dioxo-16-oxa-10,22,28-triazapentacyclo[18.5.2.1^2,^6.1^10,^14.0^23,^27]nonacosa-1(26),2,4,6(29),20,23(27),24-heptaen-8-yl]-3-methyl-2-{N-methyl-1-[(3S)-1-(prop-2-enoyl)pyrrolidin-3-yl]formamido}butanamide]", "IC50": "< 10 nM and 10 to 100 nM"},
      {"smiles": "C=CC(=O)N1CC[C@H](C(=O)N(C)[C@H](C(=O)N[C@H]2Cc3cc(O)cc(c3)-c3ccc4c(c3)c(c(-c3cnccc3[C@H](C)OC)n4CC)CC(C)(C)COC(=O)[C@@H]3CCCN(N3)C2=O)C(C)C)C1", "note": "[Compound A76]", "IC50": "< 10 nM"},
      {"smiles": "C=CC(=O)N1CC[C@H](C(=O)N(C)[C@H](C(=O)N[C@H]2Cc3cc(O)cc(c3)-c3ccc4c(c3)c(c(-c3cnccc3C)n4CC)CC(C)(C)COC(=O)[C@@H]3CCCN(N3)C2=O)C(C)C)C1", "note": "[Compound A77]", "IC50": "10 to 100 nM"}
    ]}
  ]
}
